In patent US8937092B2, “Aryl or N-heteroaryl substituted methanesulfonamide derivatives as vanilloid receptor ligands” (Gruenenthal GmbH, priority 2011, dated 2015):

Target: vanilloid receptor 1 (VR1/TRPV1 receptor) (Homo sapiens, UniProt Q8NER1)
Test: Functional FLIPR Ca2+ influx assay on vanilloid receptor 1, capsaicin (Cap) stimulus
Format: cell-based
Settings: Ki from IC50 by Cheng-Prusoff, read-out: (f) Ki (human being) [nM], Cap
Protocol: Furthermore, preference may be given to compounds according to the invention that cause a 50 percent displacement of capsaicin, which is present at a concentration of 100 nM, in a FLIPR assay with CHO K1 cells which were transfected with the human VR1 gene at a concentration of less than 2,000 nM, preferably less than 1,000 nM, particularly preferably less than 300 nM, most particularly preferably less than 100 nM, even more preferably less than 75 nM, additionally preferably less than 50 nM, most preferably less than 10 nM.
In the process, the Ca^2+ influx is quantified in the FLIPR assay with the aid of a Ca^2+-sensitive dye (type Fluo-4, Molecular Probes Europe BV, Leiden, the Netherlands) in a fluorescent imaging plate reader (FLIPR, Molecular Devices, Sunnyvale, USA), as described hereinafter.
Pharmacological Methods I. Functional Testing Carried Out on the Vanilloid Receptor 1 (VRI/TRPV1 Receptor) […]
The number of cells in the suspension is set to 3×10^5 per mL and 150 μL of this suspension are in each case introduced into a recess in the cell culture plates coated as described hereinbefore. In the incubator the plates are left for two to three days at 37° C., 5% by volume of CO2 and 95% relative humidity. Subsequently, the cells are loaded with 2 μM of Fluo-4 and 0.01% by volume of Pluronic F127 (Molecular Probes Europe BV, Leiden, the Netherlands) in HBSS buffer (Hank's buffered saline solution, Gibco Invitrogen GmbH, Karlsruhe, Germany) for 30 min at 37° C., washed 3 times with HBSS buffer and after further incubation for 15 minutes at room temperature used for Ca^2+ measurement in a FLIPR assay. The Ca^2+-dependent fluorescence is in this case measured before and after the addition of substances (λex=488 nm, λem=540 nm). Quantification is carried out by measuring the highest fluorescence intensity (FC, fluorescence counts) over time.
The FLIPR protocol consists of 2 substance additions. First the compounds to be tested (10 μM) are pipetted onto the cells and the Ca^2+ influx is compared with the control (capsaicin 10 μM). This provides the result in % activation based on the Ca^2+ signal after the addition of 10 μM of capsaicin (CP). After 5 minutes' incubation, 100 nM of capsaicin are applied and the Ca^2+ influx is also determined.
Desensitising agonists and antagonists lead to suppression of the Ca^2+ influx. The % inhibition is calculated compared to the maximum achievable inhibition with 10 μM of capsazepine.
Triple analyses (n=3) are carried out and repeated in at least 3 independent experiments (N=4).
Starting from the percentage displacement caused by different concentrations of the compounds to be tested of general formula I, IC50 inhibitory concentrations which cause a 50-percent displacement of capsaicin were calculated. K, values for the test substances were obtained by conversion by means of the Cheng-Prusoff equation (Cheng, Prusoff; Biochem. Pharmacol. 22, 3099-3108, 1973).
The affinity of the compounds according to the invention for the vanilloid receptor 1 (VR1/TRPV1 receptor) was determined as described herein before (pharmacological method I).
The value after the “@” symbol indicates the concentration at which the inhibition (as a percentage) was respectively determined.

| Compound | Ki [nM] |
| --- | --- |
| Cc1cccc(-c2nc(C(F)(F)F)ccc2CNC(=O)C(C)c2ccc(CNS(C)(=O)=O)c(F)c2)c1C (centres unmarked) [Example 30, N-((2-(2,3-dimethylphenyl)-6-(trifluoromethyl)pyridin-3-yl)methyl)-2-(3-fluoro-4-(methylsulfonamidomethyl)phenyl)propanamide] | 41 |
| Cc1cc(F)cc(-c2nc(C(F)(F)F)ccc2CNC(=O)C(C)c2ccc(CNS(C)(=O)=O)c(F)c2)c1 (centres unmarked) [Example 36, 2-(3-fluoro-4-(methylsulfonamidomethyl)phenyl)-N-((2-(3-fluoro-5-methylphenyl)-6-(trifluoromethyl)pyridin-3-yl)methyl)propanamide] | 63 |
| Cc1cc(-c2nc(C(F)(F)F)ccc2CNC(=O)C(C)c2ccc(CNS(C)(=O)=O)c(F)c2)ccc1C#N (centres unmarked) [Example 39, N-((2-(4-cyano-3-methylphenyl)-6-(trifluoromethyl)pyridin-3-yl)methyl)-2-(3-fluoro-4-(methylsulfonamidomethyl)phenyl)propanamide] | 66 |
| COc1c(C)cccc1-c1nc(C(F)(F)F)ccc1CNC(=O)C(C)c1ccc(CNS(C)(=O)=O)c(F)c1 (centres unmarked) [Example 42, 2-(3-fluoro-4-(methylsulfonamidomethyl)phenyl)-N-((2-(2-methoxy-3-methylphenyl)-6-(trifluoromethyl)pyridin-3-yl)methyl)propanamide] | 65 |
| COc1ccc(-c2nc(C(F)(F)F)ccc2CNC(=O)C(C)c2ccc(CNS(C)(=O)=O)c(F)c2)cc1C (centres unmarked) [Example 43, 2-(3-fluoro-4-(methylsulfonamidomethyl)phenyl)-N-((2-(4-methoxy-3-methylphenyl)-6-(trifluoromethyl)pyridin-3-yl)methyl)propanamide] | 35 |
| COc1cc(C)cc(-c2nc(C(F)(F)F)ccc2CNC(=O)C(C)c2ccc(CNS(C)(=O)=O)c(F)c2)c1 (centres unmarked) [Example 44, 2-(3-fluoro-4-(methylsulfonamidomethyl)phenyl)-N-((2-(3-methoxy-5-methylphenyl)-6-(trifluoromethyl)pyridin-3-yl)methyl)propanamide] | 106 |
| CCOc1cc(C)cc(-c2nc(C(F)(F)F)ccc2CNC(=O)C(C)c2ccc(CNS(C)(=O)=O)c(F)c2)c1 (centres unmarked) [Example 47, N-((2-(3-ethoxy-5-methylphenyl)-6-(trifluoromethyl)pyridin-3-yl)methyl)-2-(3-fluoro-4-(methylsulfonamidomethyl)phenyl)propanamide] | 37 |

Other lines, results leading:

| Ki [nM] | Compound |
| --- | --- |
| 6 | Cc1cccc(-c2nc(C(F)(F)F)ccc2CNC(=O)C(C)c2ccc(CNS(C)(=O)=O)c(F)c2)c1 (centres unmarked) [Example 24, 2-(3-fluoro-4-(methylsulfonamidomethyl)phenyl)-N-((2-m-tolyl-6-(trifluoromethyl)pyridin-3-yl)methyl)propanamide] |
| 15 | Cc1cccc(-c2nc(C(F)(F)F)ccc2CNC(=O)[C@@H](C)c2ccc(CNS(C)(=O)=O)c(F)c2)c1 [Example 25, (S)-2-(3-fluoro-4-(methylsulfonamidomethyl)phenyl)-N-((2-m-tolyl-6-(trifluoromethyl)pyridin-3-yl)methyl)propanamide] |
| 10 | Cc1cccc(-c2nc(C(F)(F)F)ccc2CNC(=O)Nc2ccc(CNS(C)(=O)=O)c(F)c2)c1 [Example 27, N-(2-fluoro-4-(3-((2-m-tolyl-6-(trifluoromethyl)pyridin-3-yl)methyl)ureido)benzyl)methanesulfonamide] |
| 32 | Cc1ccc(-c2nc(C(F)(F)F)ccc2CNC(=O)C(C)c2ccc(CNS(C)(=O)=O)c(F)c2)cc1 (centres unmarked) [Example 29, 2-(3-fluoro-4-(methylsulfonamidomethyl)phenyl)-N-((2-p-tolyl-6-(trifluoromethyl)pyridin-3-yl)methyl)propanamide] |
| 28 | Cc1ccc(-c2nc(C(F)(F)F)ccc2CNC(=O)C(C)c2ccc(CNS(C)(=O)=O)c(F)c2)cc1C (centres unmarked) [Example 31, N-((2-(3,4-dimethylphenyl)-6-(trifluoromethyl)pyridin-3-yl)methyl)-2-(3-fluoro-4-(methylsulfonamidomethyl)phenyl)propanamide] |
| 22 | Cc1cc(C)cc(-c2nc(C(F)(F)F)ccc2CNC(=O)C(C)c2ccc(CNS(C)(=O)=O)c(F)c2)c1 (centres unmarked) [Example 32, N-((2-(3,5-dimethylphenyl)-6-(trifluoromethyl)pyridin-3-yl)methyl)-2-(3-fluoro-4-(methylsulfonamidomethyl)phenyl)propanamide] |
| 27 | Cc1cccc(-c2nc(C(F)(F)F)ccc2CNC(=O)C(C)c2ccc(CNS(C)(=O)=O)c(F)c2)c1F (centres unmarked) [Example 34, N-((2-(2-fluoro-3-methylphenyl)-6-(trifluoromethyl)pyridin-3-yl)methyl)-2-(3-fluoro-4-(methylsulfonamidomethyl)phenyl)propanamide] |
| 7 | Cc1cc(-c2nc(C(F)(F)F)ccc2CNC(=O)C(C)c2ccc(CNS(C)(=O)=O)c(F)c2)ccc1F (centres unmarked) [Example 35, N-((2-(4-fluoro-3-methylphenyl)-6-(trifluoromethyl)pyridin-3-yl)methyl)-2-(3-fluoro-4-(methylsulfonamidomethyl)phenyl)propanamide] |
| 16 | Cc1ccc(F)c(-c2nc(C(F)(F)F)ccc2CNC(=O)C(C)c2ccc(CNS(C)(=O)=O)c(F)c2)c1 (centres unmarked) [Example 37, 2-(3-fluoro-4-(methylsulfonamidomethyl)phenyl)-N-((2-(2-fluoro-5-methylphenyl)-6-(trifluoromethyl)pyridin-3-yl)methyl)propanamide] |
| 12 | CCOc1ccc(-c2nc(C(F)(F)F)ccc2CNC(=O)C(C)c2ccc(CNS(C)(=O)=O)c(F)c2)cc1C (centres unmarked) [Example 46, N-((2-(4-ethoxy-3-methylphenyl)-6-(trifluoromethyl)pyridin-3-yl)methyl)-2-(3-fluoro-4-(methylsulfonamidomethyl)phenyl)propanamide] |
| 28 | COCc1cccc(-c2nc(C(F)(F)F)ccc2CNC(=O)C(C)c2ccc(CNS(C)(=O)=O)c(F)c2)c1 (centres unmarked) [Example 49, 2-(3-fluoro-4-(methylsulfonamidomethyl)phenyl)-N-((2-(3-(methoxymethyl)phenyl)-6-(trifluoromethyl)pyridin-3-yl)methyl)propanamide] |
| 2 | CC(C)c1cccc(-c2nc(C(F)(F)F)ccc2CNC(=O)C(C)c2ccc(CNS(C)(=O)=O)c(F)c2)c1 (centres unmarked) [Example 50, 2-(3-fluoro-4-(methylsulfonamidomethyl)phenyl)-N-((2-(3-isopropylphenyl)-6-(trifluoromethyl)pyridin-3-yl)methyl)propanamide] |
| 1 | CC(C(=O)NCc1ccc(C(F)(F)F)nc1-c1cccc(C(C)(C)C)c1)c1ccc(CNS(C)(=O)=O)c(F)c1 (centres unmarked) [Example 51, N-((2-(3-tert-butylphenyl)-6-(trifluoromethyl)pyridin-3-yl)methyl)-2-(3-fluoro-4-(methylsulfonamidomethyl)phenyl)propanamide] |

Same assay, conditions: inhibition at 1 μM, read-out: (f) inhibition (human being), Cap, @1 μM

| inhibition at 1 µM [%] | Compound |
| --- | --- |
| 15 | COc1ccc(C)cc1-c1nc(C(F)(F)F)ccc1CNC(=O)C(C)c1ccc(CNS(C)(=O)=O)c(F)c1 (centres unmarked) [Example 45, 2-(3-fluoro-4-(methylsulfonamidomethyl)phenyl)-N-((2-(2-methoxy-5-methylphenyl)-6-(trifluoromethyl)pyridin-3-yl)methyl)propanamide] |

Same assay, conditions: inhibition at 5 μM, read-out: (f) inhibition (human being), Cap, @5 μM

| inhibition at 5 µM [%] | Compound |
| --- | --- |
| 33 | Cc1cccc(-c2nc(C(F)(F)F)ccc2CNC(=O)[C@H](C)c2ccc(CNS(C)(=O)=O)c(F)c2)c1 [Example 26, (R)-2-(3-fluoro-4-(methylsulfonamidomethyl)phenyl)-N-((2-m-tolyl-6-(trifluoromethyl)pyridin-3-yl)methyl)propanamide] |
| 35 | Cc1ccc(C)c(-c2nc(C(F)(F)F)ccc2CNC(=O)C(C)c2ccc(CNS(C)(=O)=O)c(F)c2)c1 (centres unmarked) [Example 33, N-((2-(2,5-dimethylphenyl)-6-(trifluoromethyl)pyridin-3-yl)methyl)-2-(3-fluoro-4-(methylsulfonamidomethyl)phenyl)propanamide] |
